PubChem BioAssay AID463149 (The Scripps Research Institute Molecular Screening Center, 2010)

Tests used:
Test in all cases: PME-1 inhibition and serine hydrolase selectivity by ABPP – cell lysate, gel-based competitive ABPP, fluorescence, powder samples, selectivity assay, late-stage follow-up (AID 463149);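 also: 0% = DMSO-treated band intensity and 100% = blank gel background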
[1] = target: Acylamino-acid-releasing enzyme (Homo sapiens) (UniProt P13798); conditions: HeLa soluble proteome, FP-Rh fluorescence, measured here: Anti-Target APEH, stronger effect = higher value
[2] = test system: Anti-Target ABHD10; conditions: HeLa soluble proteome, FP-Rh fluorescence, stronger effect = higher value
[3] = test system: Anti-Target CES; conditions: HeLa soluble proteome, FP-Rh fluorescence, measured here: Anti-Target CES, stronger effect = higher value
[4] = test system: Anti-Target PREP; conditions: HeLa soluble proteome, FP-Rh fluorescence, measured here: Anti-Target PREP, stronger effect = higher value
[5] = target: Fatty acid synthase (Homo sapiens) (UniProt P49327); conditions: HeLa soluble proteome, FP-Rh fluorescence, measured here: Anti-Target FAS, stronger effect = higher value
[6] = target: Protein phosphatase methylesterase 1 (Homo sapiens) (UniProt Q9Y570); conditions: HeLa soluble proteome, FP-Rh fluorescence, stronger effect = higher value
[7] = measured here: Anti-Target ABHD10, at 1 µM
[8] = measured here: Anti-Target ABHD10, at 20 µM

Sequence of Acylamino-acid-releasing enzyme (Homo sapiens) (P13798 whole entry, looked up): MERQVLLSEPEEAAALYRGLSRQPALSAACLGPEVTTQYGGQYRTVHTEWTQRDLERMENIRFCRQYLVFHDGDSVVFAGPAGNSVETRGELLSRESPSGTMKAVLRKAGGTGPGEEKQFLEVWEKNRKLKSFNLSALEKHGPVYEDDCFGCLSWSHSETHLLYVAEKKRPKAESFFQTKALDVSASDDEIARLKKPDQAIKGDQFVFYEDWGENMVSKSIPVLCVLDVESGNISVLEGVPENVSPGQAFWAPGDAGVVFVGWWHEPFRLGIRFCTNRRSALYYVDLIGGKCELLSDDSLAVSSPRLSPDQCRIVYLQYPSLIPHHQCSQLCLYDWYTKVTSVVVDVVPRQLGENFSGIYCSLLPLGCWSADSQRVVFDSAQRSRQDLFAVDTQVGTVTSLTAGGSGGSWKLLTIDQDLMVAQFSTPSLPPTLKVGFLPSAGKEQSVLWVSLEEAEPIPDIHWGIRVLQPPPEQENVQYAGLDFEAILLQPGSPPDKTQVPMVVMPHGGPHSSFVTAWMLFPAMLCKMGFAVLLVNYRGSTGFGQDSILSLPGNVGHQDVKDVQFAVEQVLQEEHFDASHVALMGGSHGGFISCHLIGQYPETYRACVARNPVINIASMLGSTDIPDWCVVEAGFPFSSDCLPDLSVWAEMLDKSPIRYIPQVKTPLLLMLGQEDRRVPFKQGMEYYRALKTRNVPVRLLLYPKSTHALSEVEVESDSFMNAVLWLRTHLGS
Sequence of Fatty acid synthase (Homo sapiens) (P49327 whole entry, looked up): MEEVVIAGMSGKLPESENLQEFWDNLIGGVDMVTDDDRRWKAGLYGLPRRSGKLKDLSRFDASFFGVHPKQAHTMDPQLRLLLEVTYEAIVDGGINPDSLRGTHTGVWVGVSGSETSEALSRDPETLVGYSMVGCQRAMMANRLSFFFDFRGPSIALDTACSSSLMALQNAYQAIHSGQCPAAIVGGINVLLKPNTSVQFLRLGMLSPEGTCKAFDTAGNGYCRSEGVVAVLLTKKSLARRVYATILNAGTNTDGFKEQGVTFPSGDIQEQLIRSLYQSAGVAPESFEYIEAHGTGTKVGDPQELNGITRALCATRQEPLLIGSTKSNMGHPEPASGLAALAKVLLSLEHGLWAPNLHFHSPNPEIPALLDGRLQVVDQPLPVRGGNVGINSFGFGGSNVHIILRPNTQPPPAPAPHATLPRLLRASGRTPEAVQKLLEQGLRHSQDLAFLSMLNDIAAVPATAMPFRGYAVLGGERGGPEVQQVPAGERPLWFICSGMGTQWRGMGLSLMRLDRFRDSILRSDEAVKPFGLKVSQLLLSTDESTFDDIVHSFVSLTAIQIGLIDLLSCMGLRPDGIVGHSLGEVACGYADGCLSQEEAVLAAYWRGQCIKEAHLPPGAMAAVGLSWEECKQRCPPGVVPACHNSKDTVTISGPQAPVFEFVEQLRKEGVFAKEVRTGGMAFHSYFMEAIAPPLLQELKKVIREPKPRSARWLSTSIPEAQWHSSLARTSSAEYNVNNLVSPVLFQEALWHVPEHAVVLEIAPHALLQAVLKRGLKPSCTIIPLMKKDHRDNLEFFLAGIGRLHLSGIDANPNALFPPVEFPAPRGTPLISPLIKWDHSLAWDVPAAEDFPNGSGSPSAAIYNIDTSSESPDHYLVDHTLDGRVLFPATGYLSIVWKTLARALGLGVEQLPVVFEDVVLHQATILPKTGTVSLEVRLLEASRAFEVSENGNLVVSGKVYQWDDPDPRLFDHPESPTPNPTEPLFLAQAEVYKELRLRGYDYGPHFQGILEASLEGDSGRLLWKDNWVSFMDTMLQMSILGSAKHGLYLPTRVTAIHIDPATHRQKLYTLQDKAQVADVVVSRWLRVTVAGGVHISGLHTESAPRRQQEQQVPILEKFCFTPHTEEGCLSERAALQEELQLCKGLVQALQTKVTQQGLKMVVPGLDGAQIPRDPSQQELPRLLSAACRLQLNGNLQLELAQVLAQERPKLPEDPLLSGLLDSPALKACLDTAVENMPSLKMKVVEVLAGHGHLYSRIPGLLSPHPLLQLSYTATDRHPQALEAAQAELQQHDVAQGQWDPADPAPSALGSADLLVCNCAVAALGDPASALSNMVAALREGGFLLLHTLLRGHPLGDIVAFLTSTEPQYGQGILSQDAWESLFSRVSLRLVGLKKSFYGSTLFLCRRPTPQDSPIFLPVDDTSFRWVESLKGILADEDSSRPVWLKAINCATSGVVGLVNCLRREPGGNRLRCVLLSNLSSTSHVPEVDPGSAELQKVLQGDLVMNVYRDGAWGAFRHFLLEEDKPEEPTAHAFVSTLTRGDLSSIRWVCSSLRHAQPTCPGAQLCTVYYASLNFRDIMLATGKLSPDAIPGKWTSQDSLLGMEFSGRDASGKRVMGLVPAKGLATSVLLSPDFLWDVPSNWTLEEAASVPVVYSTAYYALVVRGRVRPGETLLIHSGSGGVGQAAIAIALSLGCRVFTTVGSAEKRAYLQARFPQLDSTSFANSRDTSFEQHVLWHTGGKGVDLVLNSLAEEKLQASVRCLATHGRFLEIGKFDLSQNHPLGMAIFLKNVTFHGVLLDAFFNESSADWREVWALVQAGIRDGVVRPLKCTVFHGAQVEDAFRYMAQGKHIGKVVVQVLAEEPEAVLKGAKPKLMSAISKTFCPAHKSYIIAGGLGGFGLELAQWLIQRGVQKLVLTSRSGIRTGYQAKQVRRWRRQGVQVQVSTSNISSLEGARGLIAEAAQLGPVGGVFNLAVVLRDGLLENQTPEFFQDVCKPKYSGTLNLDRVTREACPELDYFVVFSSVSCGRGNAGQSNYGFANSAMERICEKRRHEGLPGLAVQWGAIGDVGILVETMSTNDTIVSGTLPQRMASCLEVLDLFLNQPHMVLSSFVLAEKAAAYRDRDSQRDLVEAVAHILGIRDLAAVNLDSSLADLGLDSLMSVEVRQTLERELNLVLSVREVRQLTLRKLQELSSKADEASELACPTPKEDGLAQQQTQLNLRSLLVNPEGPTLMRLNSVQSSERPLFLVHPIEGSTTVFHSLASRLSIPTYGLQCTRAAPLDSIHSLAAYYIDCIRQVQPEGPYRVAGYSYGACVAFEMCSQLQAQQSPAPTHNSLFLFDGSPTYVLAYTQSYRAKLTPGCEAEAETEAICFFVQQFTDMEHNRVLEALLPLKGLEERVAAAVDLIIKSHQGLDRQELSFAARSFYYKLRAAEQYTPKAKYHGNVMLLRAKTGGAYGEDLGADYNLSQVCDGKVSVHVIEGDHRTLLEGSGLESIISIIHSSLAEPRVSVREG
Sequence of Protein phosphatase methylesterase 1 (Homo sapiens) (Q9Y570 whole entry, looked up): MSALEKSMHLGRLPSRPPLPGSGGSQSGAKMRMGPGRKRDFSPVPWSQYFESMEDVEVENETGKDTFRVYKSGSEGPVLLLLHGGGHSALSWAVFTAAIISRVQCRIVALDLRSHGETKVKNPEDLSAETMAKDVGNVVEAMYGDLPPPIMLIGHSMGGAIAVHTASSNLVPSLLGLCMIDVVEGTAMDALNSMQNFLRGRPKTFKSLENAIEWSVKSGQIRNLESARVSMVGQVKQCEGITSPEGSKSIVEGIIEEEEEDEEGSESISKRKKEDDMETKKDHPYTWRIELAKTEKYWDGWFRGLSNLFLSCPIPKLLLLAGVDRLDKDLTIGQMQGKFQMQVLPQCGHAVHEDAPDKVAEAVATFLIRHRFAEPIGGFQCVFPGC

| SMILES | inhibition ([1]; at 1 µM) [%] | inhibition ([1]; at 20 µM) [%] | inhibition [2, 7] [%] | inhibition [2, 8] [%] | inhibition ([3]; at 1 µM) [%] | inhibition ([3]; at 20 µM) [%] | inhibition ([4]; at 1 µM) [%] | inhibition ([4]; at 20 µM) [%] | inhibition ([5]; at 1 µM) [%] | inhibition ([5]; at 20 µM) [%] | inhibition ([6]; PME-1, inhibition, at 1 µM) [%] | inhibition ([6]; PME-1, inhibition, at 20 µM) [%] | inhibition ([6]; PME-1, at 0.1 µM) [%] |
| --- | --- | --- | --- | --- | --- | --- | --- | --- | --- | --- | --- | --- | --- |
| CCOC(=O)N1C(=O)[C@](c2ccc(Cl)cc2)(C(C)C)N1C(=O)OCC | 0 | 0 | 0 | 0 | 0 | 0 | 0 | 0 | 0 | 0 | 50 | 100 | – |
| COC(=O)N1C(=O)[C@](c2ccc(OC)cc2)(C(C)C)N1C(=O)OC | 0 | 0 | 0 | 0 | 0 | 0 | 0 | 0 | 0 | > 50 | 100 | 100 | – |
| CCOC(=O)N1C(=O)[C@@](c2ccc(Cl)cc2)(C(C)C)N1C(=O)OCC | 0 | 0 | 0 | 0 | 0 | 0 | 0 | 0 | 0 | 0 | 0 | 0 | – |
| CC[C@@]1(c2ccccc2C)C(=O)N(C(=O)OC)N1C(=O)OC | 0 | 0 | 0 | 0 | > 50 | > 50 | 0 | 0 | 0 | 0 | 50 | 100 | – |
| CC[C@]1(c2cccc(C)c2)C(=O)N(C(=O)OC)N1C(=O)OC | 0 | 0 | 0 | 0 | > 50 | > 50 | 0 | 0 | 0 | > 50 | 50 | 100 | – |
| CC[C@]1(c2ccccc2C)C(=O)N(C(=O)OC)N1C(=O)OC | 0 | 0 | 0 | 0 | 0 | > 50 | 0 | 0 | 0 | 0 | 0 | 100 | – |
| CCOC(=O)N1C(=O)[C@@](CC)(c2ccccc2)N1C(=O)OCC | 0 | 0 | 0 | 50 | 0 | > 50 | 0 | > 50 | 0 | 0 | 0 | 0 | – |
| COC(=O)N1C(=O)[C@@](c2ccc(OC)cc2)(C(C)C)N1C(=O)OC | 0 | 0 | 0 | 0 | 0 | > 50 | 0 | 0 | 0 | 0 | 0 | 50 | – |
| COC(=O)N1C(=O)[C@](Cc2ccccc2)(c2ccccc2)N1C(=O)OC | 0 | > 50 | 0 | 0 | > 50 | > 50 | 0 | 0 | 0 | > 50 | 75 | 100 | – |
| CC[C@@]1(c2cccc(C)c2)C(=O)N(C(=O)OC)N1C(=O)OC | 0 | 0 | 0 | 50 | > 50 | > 50 | 0 | > 50 | 0 | > 50 | 0 | 100 | – |
| CCOC(=O)N1C(=O)[C@](CC)(c2ccccc2)N1C(=O)OCC | 0 | 0 | 0 | 0 | > 50 | > 50 | 0 | 0 | 0 | > 50 | 0 | 100 | – |

Other lines, results leading:

| inhibition ([1]; at 1 µM) [%] | inhibition ([1]; at 20 µM) [%] | inhibition [2, 7] [%] | inhibition [2, 8] [%] | inhibition ([3]; at 1 µM) [%] | inhibition ([3]; at 20 µM) [%] | inhibition ([4]; at 1 µM) [%] | inhibition ([4]; at 20 µM) [%] | inhibition ([5]; at 1 µM) [%] | inhibition ([5]; at 20 µM) [%] | inhibition ([6]; PME-1, inhibition, at 1 µM) [%] | inhibition ([6]; PME-1, inhibition, at 20 µM) [%] | inhibition ([6]; PME-1, at 0.1 µM) [%] | SMILES |
| --- | --- | --- | --- | --- | --- | --- | --- | --- | --- | --- | --- | --- | --- |
| 0 | > 50 | 0 | 0 | > 50 | > 50 | 0 | 0 | 0 | > 50 | 100 | 100 | – | COC(=O)N1C(=O)[C@@](CC(C)C)(c2ccccc2)N1C(=O)OC |
| 0 | 0 | 0 | 0 | > 50 | > 50 | 0 | 0 | 0 | 0 | 75 | 100 | – | CC[C@]1(c2ccccc2)C(=O)N(C(=O)OC)N1C(=O)OC |
| 0 | 0 | 0 | 50 | 0 | > 50 | 0 | > 50 | 0 | 0 | 0 | 100 | – | CC[C@@]1(c2ccccc2)C(=O)N(C(=O)OC)N1C(=O)OC |
| 0 | > 50 | 0 | 0 | > 50 | > 50 | 0 | 0 | > 50 | > 50 | 100 | 100 | 100 | COC(=O)N1C(=O)[C@](CC(C)C)(c2ccccc2)N1C(=O)OC |
| 0 | 0 | 0 | 0 | 0 | 0 | 0 | 0 | 0 | 0 | 100 | 100 | 50 | COC(=O)N1C(=O)[C@@](c2ccccc2)(C2CCCC2)N1C(=O)OC |
| 0 | 0 | 0 | 0 | 0 | > 50 | 0 | 0 | 0 | 0 | 0 | 100 | – | COC(=O)N1C(=O)[C@@](c2ccccc2)(C(C)C)N1C(=O)OC |
| 0 | 0 | 0 | 0 | 0 | 0 | 0 | 0 | 0 | 0 | 100 | 100 | – | COC(=O)N1C(=O)[C@](c2ccccc2)(C(C)C)N1C(=O)OC |
| 0 | > 50 | 0 | 0 | 0 | 0 | 0 | 0 | 0 | > 50 | 100 | 100 | 100 | COC(=O)N1C(=O)[C@](c2ccccc2)(C2CCCC2)N1C(=O)OC |
| 0 | 0 | 0 | 50 | > 50 | > 50 | 0 | 0 | 0 | 0 | 0 | 50 | – | COC(=O)N1C(=O)[C@@](Cc2ccccc2)(c2ccccc2)N1C(=O)OC |
| 0 | 0 | 0 | 0 | 0 | 0 | 0 | 0 | 0 | > 50 | 100 | 100 | 90 | COC(=O)N1C(=O)[C@](c2ccccc2)(C2CCCCC2)N1C(=O)OC |
| 0 | 0 | 0 | 0 | 0 | 0 | 0 | 0 | 0 | 0 | 100 | 100 | – | COC(=O)N1C(=O)[C@@](c2ccccc2)(C2CCCCC2)N1C(=O)OC |
